Values of other authors, collected in patent US6630442B1, “Reparatives for chemosurgery and laser (thermal) therapy” (priority 1997, dated 2003).

Key:
[1] = tested on: granulating wounds; conditions: applied to granulating wounds
[2] = tested on: partial thickness burns or split thickness epidermal burns; conditions: mixed with topical creams, applied twice daily
[3] = tested on: cells; conditions: in vitro
[4] = tested on: psoriasis
[5] = tested on: skin damage by ultraviolet irradiation
[6] = tested on: lipid peroxidation in tissues; conditions: tissues of vitamin E deficient chicks
[7] = tested on: acute damage to the skin by sunburn induced by ultraviolet irradiation
[8] = tested on: human leukocytes

EGF: Epidermal growth factor is a 53 amino acid polypeptide which stimulates messenger RNA, DNA and protein synthesis (NSDSECPLSHDGYCLHDGVCMYIEALDKYACNCVVGYIGERCQYRDLKWWELR; Epidermal growth factor; UniProt P01133 971-1023, looked up)
concentrations of wound DNA and collagen hydroxyproline [1]: increase both the concentrations of DNA associated with cutaneous injury and of collagen hydroxyproline | healing process of wounds [2]: highly significant increase in the healing process | exposure time needed to yield a mitogenic signal [3]: about five hours

C[Se]CC[C@H](N)C(=O)O [selenomethionine]
number of CD4+ T-cells in the reticular dermis of psoriatic lesions ([4]; human, in vivo): statistically significant increase | skin levels of selenium dependent glutathione peroxidase ([4]; normal and psoriatic skin): unchanged | increase in blood selenium post treatment ([4]; psoriasis patients with normal pretreatment selenium blood levels): 40% | skin damage by ultraviolet irradiation (inflammation and pigmentation) ([5]; mice treated with selenomethionine): significantly less skin damage by ultraviolet irradiation | onset and incidence of skin cancers ([5]; mice treated with selenomethionine, UV irradiation): later onset and lesser incidence of skin cancers | selenium toxicity ([5]; mouse, in vivo, po): no evidence of selenium toxicity | concentration of selenium in skin in areas of topical application ([5]; topical lotion versus comparable oral doses): greater than those of the experimental animals given comparable oral doses | in vivo lipid peroxidation [6]: inhibits in vivo lipid peroxidation | protection against acute UV damage to the skin, measured by the minimal erythema dose ([7]; eight women, topical lotion 0.002%, 0.02% and 0.05%, solar ultraviolet simulator): effective in protecting against acute UV damage to the skin | plasma levels of selenium ([7]; volunteers after topical selenomethionine): remained unchanged

(−)epigallo catechin gallate [EGCG]
hydrogen peroxide formation [8]: inhibits hydrogen peroxide formation
